The values below come from US6670366B1, “Pyrazolopyrimidinone cGMP PDE5 inhibitors for the treatment of sexual dysfunction” (Pfizer Inc, priority 1998, dated 2003).

pIC50: −log10 of the molar value.

Broadly, the pIC50 is the negative decadic logarithm of the IC50, by convention in mol/L.

The target in this experiment is cGMP PDE5 (UniProt O76074). Briefly: In vitro PDE inhibitory activity against cGMP PDE5. The experiment is classed as biochemical, human or rabbit. The following applies: concentration of compound required for 50% inhibition of enzyme activity, read-out: IC50 as inhibitors of cGMP PDE5. As to the method: In vitro PDE inhibitory activities against cyclic guanosine 3′,5′-monophosphate (cGMP) and cyclic adenosine 3′,5′-monophosphate (cAMP) phosphodiesterases were determined by measurement of their IC50 values (the concentration of compound required for 50% inhibition of enzyme activity).
The required PDE enzymes were isolated from a variety of sources, including human corpus cavernosum, human and rabbit platelets, human cardiac ventricle, human skeletal muscle and bovine retina, essentially by the method of W. J. Thompson and M. M. Appleman (Biochem., 1971, 10, 311). In particular, the cGMP-specific PDE (PDE5) and the cGMP-inhibited cAMP PDE (PDE3) were obtained from human corpus cavernosum tissue, human platelets or rabbit platelets; the cGMP-stimulated PDE (PDE2) was obtained from human corpus cavernosum; the calcium/calmodulin (Ca/CAM)-dependent PDE (PDE1) from human cardiac ventricle; the cAMP-specific PDE (PDE4) from human skeletal muscle; and the photoreceptor PDE (PDE6) from bovine retina.
Assays were performed using modification of the “batch” method of W. J. Thompson et al. (Biochem., 1979, 18, 5228).
As to `CCc1c2nc(-c3cc(S(=O)(=O)N4CCC(CC)CC4)cnc3OCCOC)[nH]c(=O)c2nn1Cc1ccccn1` [Example 22], the pIC50 is 7.99.
As for `CCCOc1ncc(S(=O)(=O)NCCN(C)C)cc1-c1nc2c(CCC)n(Cc3ccccn3)nc2c(=O)[nH]1` [Example 20, 5-(5-[(3-N,N-Dimethylamino)-1-ethylaminosulfonyl]-2-n-propoxypyridin-3-yl)-3-n-propyl-2-(pyridin-2-yl)methyl-2,6-dihydro-7H-pyrazolo[4,3-d]pyrimidin-7-one], the figure is 8.07; as for `CCCc1c2nc(-c3cc(S(=O)(=O)N(C)C)cnc3OCC)[nH]c(=O)c2nn1Cc1ccccn1` [Example 19, 5-[5-(N,N-Dimethylaminosulfonyl)-2-ethoxypyridin-3-yl]-3-n-propyl-2-(pyridin-2-yl)methyl-2,6dihydro-7H-pyrazolo[4,3-d]pyrimidin-7-one], 8.01; as for `CCCOc1ccc(S(=O)(=O)N2CC(O)C2)cc1-c1nc2c(CCC)n(Cc3ccccn3)nc2c(=O)[nH]1` [Example 8], 7.79.
The same measure for `CCOc1ccc(S(=O)(=O)N2CCC(CC)CC2)cc1-c1nc2c(CC)n(Cc3ccccn3)nc2c(=O)[nH]1` [Example 4]: 7.58; for `CCCOc1ccc(S(=O)(=O)NC2CCN(C(=O)OCC)CC2)cc1-c1nc2c(CCC)n(Cc3ccccn3)nc2c(=O)[nH]1` [Example 10]: 7.85.
